Assay type in all cases: nucleic-acid assay
Experiment [1] relates to Quadruplex DNA. Put plainly: Binding affinity to human Tel23 G4 quadruplex DNA assessed as change in entropy at 298.15 K by isothermal titration calorimetric analysis.
The test system of experiment [2] is Quadruplex DNA. In words: Binding affinity to human Tel23 G4 quadruplex DNA assessed as quadruplex DNA stabilization by measuring increase in melting temperature at compound:quadruplex DNA ratio of 1:1 by thermal melting studies.
Experiment [3] concerns Quadruplex DNA. Put plainly: Binding affinity to human Tel23 G4 quadruplex DNA assessed as increase in fluorescence intensity at 1 uM by spectrofluorimetric titration analysis.
Experiment [4] relates to Quadruplex DNA. In words: Binding affinity to human Tel12 G4 quadruplex DNA assessed as decrease in intensity of positive peaks measured after 5 mins by circular dichroism method.
Experiment [5] deals with Quadruplex DNA. Put plainly: Binding affinity to human Tel12 G4 quadruplex DNA assessed as change in enthalpy at 298.15 K by isothermal titration calorimetric analysis. For orientation: ITC needs no label: the signal is the heat of the interaction.
In experiment [6] the test system is Quadruplex DNA. Put plainly: Binding affinity to human Tel12 G4 quadruplex DNA assessed as quadruplex DNA stabilization by measuring increase in melting temperature at compound:quadruplex DNA ratio of 1:1 by thermal melting studies.
Experiment [7] concerns Quadruplex DNA. In words: Binding affinity to human Tel23 G4 quadruplex DNA assessed as change in enthalpy at 298.15 K by isothermal titration calorimetric analysis.
Experiment [8] concerns Quadruplex DNA. In words: Binding affinity to human Tel23 G4 quadruplex DNA assessed as gibbs free energy change at 298.15 K by isothermal titration calorimetric analysis.
Experiment [9] relates to Quadruplex DNA. In words: Binding affinity to human Tel12 G4 quadruplex DNA assessed as gibbs free energy change at 298.15 K by isothermal titration calorimetric analysis.
The subject of experiment [10] is Quadruplex DNA. In words: Binding affinity to human Tel12 G4 quadruplex DNA assessed as sharp isosbestic point at 351 and 433 nm at 3 uM by spectrophotometric titration analysis.
Experiment [11] deals with Quadruplex DNA. Put plainly: Binding affinity to human Tel12 G4 quadruplex DNA assessed as decrease in absorption maxima at 338 and 413 nm at 3 uM by spectrophotometric titration analysis.
For experiment [12], the system named is Quadruplex DNA. Put plainly: Binding affinity to human Tel12 G4 quadruplex DNA assessed as change in entropy at 298.15 K by isothermal titration calorimetric analysis.
Experiment [13] has as its system Quadruplex DNA. Put plainly: Binding affinity to human Tel23 G4 quadruplex DNA assessed as decrease in absorption maxima at 338 and 413 nm at 3 uM by spectrophotometric titration analysis.
In experiment [14] the test system is Quadruplex DNA. In words: Binding affinity to human Tel23 G4 quadruplex DNA assessed as sharp isosbestic point at 350, 375 and 430 nm at 3 uM by spectrophotometric titration analysis.
For experiment [15], the system named is Quadruplex DNA. Put plainly: Binding affinity to human Tel23 G4 quadruplex DNA at 298.15 K by isothermal titration calorimetric analysis.
In experiment [16] the test system is Quadruplex DNA. In words: Binding affinity to human Tel23 G4 quadruplex DNA assessed as decrease in intensity of positive peaks measured after 5 mins by circular dichroism method. For orientation: Circular dichroism is widely used to follow secondary structure.
The test system of experiment [17] is Quadruplex DNA. In words: Binding affinity to human Tel12 G4 quadruplex DNA assessed as increase in fluorescence intensity at 1 uM by spectrofluorimetric titration analysis.
Experiment [18] concerns Quadruplex DNA. Put plainly: Binding affinity to human Tel12 G4 quadruplex DNA at 298.15 K by isothermal titration calorimetric analysis.

Calls of active or inactive are those of the source. No cut-off for these calls is given here.

Experimental findings from ChEMBL document CHEMBL4613278, “Pyridine Derivative of the Natural Alkaloid Berberine as Human Telomeric G4-DNA Binder: A Solution and Solid-State Study” (ACS Med Chem Lett, 2020) are described below.

Regarding `COc1ccc2c(CCCc3ccncc3)c3[n+](cc2c1OC)CCc1cc2c(cc1-3)OCO2`, the results for the TdeltaS with Quadruplex DNA [1] and with Quadruplex DNA [12] were -1.97 kcal/mol and 0.3 kcal/mol, respectively. Besides, the deltaTm in the experiment with Quadruplex DNA [2] stood at 2 K; in the experiment on Quadruplex DNA [6] it was 15 K. In addition, the outcome with Quadruplex DNA [3], in the experiment with Quadruplex DNA [4], in the experiment on Quadruplex DNA [10], in the experiment on Quadruplex DNA [11], with Quadruplex DNA [13] and with Quadruplex DNA [14] was Active. Moreover, the result with Quadruplex DNA [16] and with Quadruplex DNA [17] was Active. The deltaH with Quadruplex DNA [5] was -7.08 kcal/mol; in the experiment with Quadruplex DNA [7], -8.53 kcal/mol. For the same compound, the figures for the deltaG in the experiment with Quadruplex DNA [8] and with Quadruplex DNA [9] were -6.55 kcal/mol and -7.38 kcal/mol, respectively. The K came to 8.15 ×10⁴ /M in the experiment with Quadruplex DNA [15] and 3.16 ×10⁵ /M in the experiment with Quadruplex DNA [18].
